In patent EP3046573B1, “AMYLIN ANALOGUES” (Zealand Pharma A/S, priority 2013, dated 2015):
Where two headings read alike, the source gives them in different places. Numbered stars: 1 amine (or outer) side, 2 acyl side, 3 side chain; on linkers, the order of the positions; unused ones are H or OH. Bridge positions count the residues as written; N and C are the ends. Square brackets hold non-standard residues; d marks the D form. Peptide text beside a SMILES is read from it. * marks the point of attachment. C20 diacid = O=C(O)CCCCCCCCCCCCCCCCCCC(=O)*; γGlu = O=C(O)[C@H](CCC(=O)[*:2])N[*:1]; NMeY = CN[C@@H](Cc1ccc(O)cc1)C(=O)O; NMeI = CC[C@H](C)[C@H](NC)C(=O)O; Sar = CNCC(=O)O

What was measured:
[1] = Solubility assessment (turbidity absorbance at 325 nm); type: physicochemical; conditions: stock 2 mg/ml diluted 1:1, ambient temperature (typically 25°C), n=1; for Solubility, Acetate buffer pH 4: 100 mM acetate buffer pH 4.0; for Solubility, Acetate buffer pH 5: 100 mM acetate buffer pH 5.0; for Solubility, Histidine buffer pH 6: 100 mM histidine buffer pH 6.0; for Solubility, Histidine buffer pH 7: 100 mM histidine buffer pH 7.0; for Solubility, Phosphate buffer pH 6: 100 mM phosphate buffer pH 6.0; for Solubility, Phosphate buffer pH 7: 100 mM phosphate buffer pH 7.0; for Solubility, Phosphate buffer pH 7.5: 100 mM phosphate buffer pH7.5
Procedure, shortened: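 Peptide stock (2 mg/ml, water pH 2.5) diluted 1:1 into 100 mM acetate (pH 4.0, 5.0), histidine (pH 6.0, 7.0) or phosphate (pH 6.0–7.5) buffer; absorbance at 325 nm read at about 25°C, n=1. A325 ≤ 0.02 taken as solubility ≥ 1 mg/ml.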

[2] = molecular target: T1, human calcitonin receptor (hCTR2) (Homo sapiens, UniProt P30988); experiment: hCTR2 assay: induction of cAMP (AlphaScreen cAMP Assay kit) in COS7 cells expressing hCTR2; type: cell-based
T1 construct: expressed in transfected cells
T1 sequence (P30988 25-474): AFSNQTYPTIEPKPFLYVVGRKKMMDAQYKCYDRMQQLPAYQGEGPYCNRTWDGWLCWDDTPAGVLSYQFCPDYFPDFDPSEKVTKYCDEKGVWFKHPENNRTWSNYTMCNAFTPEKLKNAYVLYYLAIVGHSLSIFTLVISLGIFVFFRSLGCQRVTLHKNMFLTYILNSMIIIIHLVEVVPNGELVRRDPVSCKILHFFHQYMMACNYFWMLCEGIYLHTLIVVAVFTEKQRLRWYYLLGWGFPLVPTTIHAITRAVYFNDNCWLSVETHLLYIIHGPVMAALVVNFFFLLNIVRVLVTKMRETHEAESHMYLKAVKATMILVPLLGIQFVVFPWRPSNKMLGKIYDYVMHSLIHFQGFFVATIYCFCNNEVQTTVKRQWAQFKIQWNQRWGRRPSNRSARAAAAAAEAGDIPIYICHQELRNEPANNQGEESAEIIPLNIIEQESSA
Procedure, shortened: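 COS7 stable hCTR2 clone (RAMP-free); peptide dose-response 15 min 37° C in Tyrode pH 7.4 + 100 µM IBMX + 0.1% casein; lysis 10 min RT; AlphaScreen cAMP; 4PL fit.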

[3] = cAMP induction in COS7 cells expressing hCTR2, average of a minimum of 3 determinations, read-out: hCTR2 EC50

SMILES	Solubility, Acetate buffer pH 4 [1]	Solubility, Acetate buffer pH 5 [1]	Solubility, Histidine buffer pH 6 [1]	Solubility, Histidine buffer pH 7 [1]	Solubility, Phosphate buffer pH 6 [1]	Solubility, Phosphate buffer pH 7 [1]	Solubility, Phosphate buffer pH 7.5 [1]	EC50 [2, 3] [pM]	EC50 [2] [pM]
CC[C@H](C)[C@@H](C(=O)N[C@@H](CC(C)C)C(=O)N[C@@H](CO)C(=O)N[C@@H](CO)C(=O)N[C@H](C(=O)N[C@@H](CC(N)=O)C(=O)N[C@H](C(=O)NCC(=O)N[C@@H](CO)C(=O)N[C@@H](CC(N)=O)C(=O)N[C@H](C(=O)N1CCC[C@H]1C(N)=O)[C@@H](C)O)C(C)C)[C@@H](C)O)N(C)C(=O)CN(C)C(=O)[C@H](Cc1ccccc1)NC(=O)[C@H](CC(N)=O)NC(=O)[C@H](CC(N)=O)NC(=O)[C@H](CO)NC(=O)[C@H](CO)NC(=O)[C@H](CCCNC(=N)N)NC(=O)[C@H](Cc1c[nH]cn1)NC(=O)[C@H](CC(C)C)NC(=O)[C@H](Cc1ccccc1)NC(=O)[C@H](CCC(=O)O)NC(=O)[C@H](C)NC(=O)[C@H](CC(C)C)NC(=O)[C@H](CCCNC(=N)N)NC(=O)[C@H](CCC(N)=O)NC(=O)[C@@H](NC(=O)[C@H](C)NC(=O)[C@@H]1CSSC[C@H](NC(=O)[C@H](CCCCN)NC(=O)CC[C@H](NC(=O)CCCCCCCCCCCCCCCCCCC(=O)O)C(=O)O)C(=O)N[C@@H](CC(N)=O)C(=O)N[C@@H]([C@@H](C)O)C(=O)N[C@@H](C)C(=O)N[C@@H]([C@@H](C)O)C(=O)N1)[C@@H](C)O [Compound 58, [19CD]-isoGlu-KC()NTATC()ATQRLAEFLHRSSNNF-Gly(Me)-Ile(Me)-LSSTNVGSNTP-NH2] ({C20 diacid-γGlu}-KCNTATCATQRLAEFLHRSSNNF[Sar][NMeI]LSSTNVGSNTP-NH2; disulfide 2-7)	SS (SS indicates solubility ≥ 1mg/ml)	SS (SS indicates solubility ≥ 1mg/ml)	SS (SS indicates solubility ≥ 1mg/ml)	SS (SS indicates solubility ≥ 1mg/ml)	SS (SS indicates solubility ≥ 1mg/ml)	II (II indicates solubility ≤ 1 mg/ml)	SS (SS indicates solubility ≥ 1mg/ml)	110	
CC[C@H](C)[C@@H](C(=O)N[C@@H](CC(C)C)C(=O)N[C@H](CO)C(=O)N[C@@H](CO)C(=O)N[C@H](C(=O)N[C@@H](CC(N)=O)C(=O)N[C@H](C(=O)NCC(=O)N[C@@H](CO)C(=O)N[C@@H](CC(N)=O)C(=O)N[C@H](C(=O)N1CCC[C@H]1C(N)=O)[C@@H](C)O)C(C)C)[C@@H](C)O)N(C)C(=O)[C@H](C)NC(=O)CN(C)C(=O)[C@@H](Cc1ccccc1)NC(=O)[C@H](CC(N)=O)NC(=O)[C@H](CC(N)=O)NC(=O)[C@H](CO)NC(=O)[C@H](CO)NC(=O)[C@H](Cc1c[nH]cn1)NC(=O)[C@H](Cc1c[nH]cn1)NC(=O)[C@H](CC(C)C)NC(=O)[C@H](Cc1ccccc1)NC(=O)[C@H](CCC(=O)O)NC(=O)[C@H](C)NC(=O)[C@H](CC(C)C)NC(=O)[C@H](CCCNC(=N)N)NC(=O)[C@H](CCC(N)=O)NC(=O)[C@@H](NC(=O)[C@H](C)NC(=O)[C@@H]1CSSC[C@H](NC(=O)[C@H](CCCNC(=N)N)NC(=O)CC[C@H](NC(=O)CCCCCCCCCCCCCCCCCCC(=O)O)C(=O)O)C(=O)N[C@@H](CC(N)=O)C(=O)N[C@@H]([C@@H](C)O)C(=O)N[C@@H](C)C(=O)N[C@@H]([C@@H](C)O)C(=O)N1)[C@@H](C)O [Compound 59, [19CD]-isoGlu-RC()NTATC()ATQRLAEFLHHSSNN-DPhe-Gly(Me)-A-Ile(Me)-L-DSer-STNVGSNTP-NH2] ({C20 diacid-γGlu}-RCNTATCATQRLAEFLHHSSNN[dF][Sar]A[NMeI]L[dS]STNVGSNTP-NH2; disulfide 2-7)	SS (SS indicates solubility ≥ 1mg/ml)	SS (SS indicates solubility ≥ 1mg/ml)	SS (SS indicates solubility ≥ 1mg/ml)	SS (SS indicates solubility ≥ 1mg/ml)	SS (SS indicates solubility ≥ 1mg/ml)	II (II indicates solubility ≤ 1 mg/ml)	SS (SS indicates solubility ≥ 1mg/ml)		140
CC[C@H](C)[C@@H](C(=O)N[C@@H](CC(C)C)C(=O)N[C@H](CO)C(=O)N[C@@H](CO)C(=O)N[C@H](C(=O)N[C@@H](CC(N)=O)C(=O)N[C@H](C(=O)NCC(=O)N[C@@H](CO)C(=O)N[C@@H](CC(N)=O)C(=O)N[C@H](C(=O)N1CCC[C@H]1C(N)=O)[C@@H](C)O)C(C)C)[C@@H](C)O)N(C)C(=O)CN(C)C(=O)[C@@H](Cc1ccccc1)NC(=O)[C@H](CC(N)=O)NC(=O)[C@H](CC(N)=O)NC(=O)[C@H](CO)NC(=O)[C@H](CO)NC(=O)[C@H](Cc1c[nH]cn1)NC(=O)[C@H](Cc1c[nH]cn1)NC(=O)[C@H](CC(C)C)NC(=O)[C@H](Cc1ccccc1)NC(=O)[C@H](CCC(=O)O)NC(=O)[C@H](C)NC(=O)[C@H](CC(C)C)NC(=O)[C@H](CCCNC(=N)N)NC(=O)[C@H](CCC(N)=O)NC(=O)[C@@H](NC(=O)[C@H](C)NC(=O)[C@@H]1CSSC[C@H](NC(=O)[C@H](CCCNC(=N)N)NC(=O)CC[C@H](NC(=O)CCCCCCCCCCCCCCCCCCC(=O)O)C(=O)O)C(=O)N[C@@H](CC(N)=O)C(=O)N[C@@H]([C@@H](C)O)C(=O)N[C@@H](C)C(=O)N[C@@H]([C@@H](C)O)C(=O)N1)[C@@H](C)O [Compound 60, [19CD]-isoGlu-RC()NTATC()ATQRLAEFLHHSSNN-DPhe-Gly(Me)-Ile(Me)-L-DSer-STNVGSNTP-NH2] ({C20 diacid-γGlu}-RCNTATCATQRLAEFLHHSSNN[dF][Sar][NMeI]L[dS]STNVGSNTP-NH2; disulfide 2-7)	SS (SS indicates solubility ≥ 1mg/ml)	SS (SS indicates solubility ≥ 1mg/ml)	SS (SS indicates solubility ≥ 1mg/ml)	SS (SS indicates solubility ≥ 1mg/ml)	SS (SS indicates solubility ≥ 1mg/ml)	II (II indicates solubility ≤ 1 mg/ml)	SS (SS indicates solubility ≥ 1mg/ml)	120	
CC[C@H](C)[C@@H](C(=O)N[C@@H](CC(C)C)C(=O)N[C@@H](CO)C(=O)N[C@@H](CO)C(=O)N[C@H](C(=O)N[C@@H](CC(N)=O)C(=O)N[C@H](C(=O)NCC(=O)N[C@@H](CO)C(=O)N[C@@H](CC(N)=O)C(=O)N[C@H](C(=O)N(C)[C@@H](Cc1ccc(O)cc1)C(N)=O)[C@@H](C)O)C(C)C)[C@@H](C)O)N(C)C(=O)CN(C)C(=O)[C@H](Cc1ccccc1)NC(=O)[C@H](CC(N)=O)NC(=O)[C@H](CC(N)=O)NC(=O)[C@H](CO)NC(=O)[C@H](CO)NC(=O)[C@H](Cc1c[nH]cn1)NC(=O)[C@H](Cc1c[nH]cn1)NC(=O)[C@H](CC(C)C)NC(=O)[C@H](Cc1ccccc1)NC(=O)[C@H](CCC(=O)O)NC(=O)[C@H](C)NC(=O)[C@H](CC(C)C)NC(=O)[C@H](CCCNC(=N)N)NC(=O)[C@H](CCC(N)=O)NC(=O)[C@@H](NC(=O)[C@H](C)NC(=O)[C@@H]1CSSC[C@H](NC(=O)[C@H](CCCNC(=N)N)NC(=O)CC[C@H](NC(=O)CCCCCCCCCCCCCCCCCCC(=O)O)C(=O)O)C(=O)N[C@@H](CC(N)=O)C(=O)N[C@@H]([C@@H](C)O)C(=O)N[C@@H](C)C(=O)N[C@@H]([C@@H](C)O)C(=O)N1)[C@@H](C)O [Compound 62, [19CD]-isoGlu-RC()NTATC()ATQRLAEFLHHSSNNF-Gly(Me)-Ile(Me)-LSSTNVGSNT-Tyr(Me)-NH2] ({C20 diacid-γGlu}-RCNTATCATQRLAEFLHHSSNNF[Sar][NMeI]LSSTNVGSNT[NMeY]-NH2; disulfide 2-7)	SS (SS indicates solubility ≥ 1mg/ml)	II (II indicates solubility ≤ 1 mg/ml)	II (II indicates solubility ≤ 1 mg/ml)	II (II indicates solubility ≤ 1 mg/ml)	II (II indicates solubility ≤ 1 mg/ml)	II (II indicates solubility ≤ 1 mg/ml)	II (II indicates solubility ≤ 1 mg/ml)	370	
